pIC50: −log10 of the molar value.
Columns and labels:
SK-OV-3 = experiment: MTT cell viability assay on SK-OV-3; assay type: cell-based, human; details: for pIC50: SK-OV-3, MTT assay, 48 h
Experimental: Human cancer cell lines, including MDA-MB-231, MCF-7, COLO205 and SK-OV-3, used in this study were purchased from American Type Culture Collection (ATCC, Manassas, VA, USA). All cell cultures were maintained in a 5% CO2-containing incubator at 37 °C. Triple-negative breast cancer cell line MDA-MB-231 and estrogen receptor-positive breast cancer cells MCF-7 were cultured in Dulbecco’s Modified Eagle Medium/Nutrient Mixture F-12 medium (DMEM/F12, Thermo Fisher Scientific Inc., Waltham, MA, USA) supplemented with 1% HyClone Penicillin-Streptomycin 100X solution (Cytiva, Marlborough, MA, USA) and 10% (v/v) fetal bovine serum (Thermo Fisher Scientific Inc., Waltham, MA, USA). COLO205 colon cancer cells and SK-OV-3 ovarian cancer cells were cultured in Roswell Park Memorial Institute (RPMI) 1640 medium (Thermo Fisher Scientific Inc., Waltham, MA, USA) containing the same supplements as described above.
Cell viability was evaluated using MTT assay. […] A viable cell count was determined by adding MTT reagent (3-(4,5-Dimethyl-2-thiazolyl)-2,5-diphenyl-2H-tetrazolium bromide (MTT; SERVA, Heidelberg, Germany) at a concentration of 5 mg/mL in PBS followed by measurement of the absorbance at 570 nm for each well detected by μQuant™ universal microplate spectrophotometer (BioTek, Winowski, VT, USA). The assessment procedures were followed under the manufacturer’s instructions. The final results were represented as mean values in the same experimental group detected by a microplate reader.

MDA-MB-231 = experiment: Western blotting of apoptosis and autophagy markers; assay type: cell-based, human; details: MDA-MB-231, Western blotting
Experimental: Each sample containing 30 μg protein mixture was loaded into a well on SDS-PAGE gel and separated through electrophoresis, followed by protein determination using specific antibodies against PARP (1:1000, Cat. #9542; Cell Signaling Technology, Danvers, MA, USA), GAPDH (1:5000, Cat. GTX100118; GeneTex, Irvine, CA, USA), Bax (1:1000, Cat. ARG65612; Arigo, Glasgow, UK), Bcl-2 (1:1000, Cat. ARG55188; Arigo, Glasgow, UK) and LC3-I/II (1:1000, Cat. #12741; Cell Signaling Technology, Danvers, MA, USA). Primary antibodies were targeted by horseradish peroxidase (HRP) conjugated anti-mouse (1:5000, Cat. A9044, Sigma-Aldrich, Burlington, VT, USA) or anti-rabbit (1:5000, Cat. SI-A0545; Sigma-Aldrich, Burlington, VT, USA) secondary antibodies for visualizing immunoblots. Results were imaged by ChemiDoc system (Bio-Rad Laboratories, Hercules, CA, USA) and semi-quantification was conducted using Image Lab system (Bio-Rad Laboratories, Hercules, CA, USA).

MDA-MB-231 cells = experiment: DNA fragmentation (agarose gel); assay type: cell-based, human; details: MDA-MB-231, 24 h
Experimental: DNA samples suspended in DNA lysis buffer containing 1.0 mM Tris hydrochloride (pH 7.5), 10 mM EDTA (pH 8.0), 10 mM sodium chloride and 0.5% Triton X-100.

[1] = test system: patient-derived TNBC tumors; experiment: Orthotopic patient-derived xenograft (PDX) model, tumor growth; assay type: in vivo; details: NSG mice
From the text: The procedures for the establishment of breast cancer-bearing xenograft models were modified from previous publications and approved by the Taipei Medical University (TMU) Institutional Animal Care and Use Committee (IACUC No. LAC- 2021-0546) and the Joint Institutional Review Board of Taipei Medical University (N201812005). Overall, 4- to 6-week-old NOD.Cg-PrkdcscidIl2rgtm1Wjl/SzJ (NSG) female mice purchased from BioLASCO Taiwan Co., Ltd. (Taipei, Taiwan) were housed in specific pathogen-free rooms with ad libitum feeding and 12 h light–dark cycle. Patient-derived TNBC tumors were microscopically considered for a hypervascular background and frequent mitosis features, and triple-negative results for estrogen receptor, progesterone receptor and human epidermal growth factor receptor 2 (HER2). After a week of acclimatization, patient-derived TNBC tumors dissected into 3 × 3 × 3 mm^3 were implanted using puncture needle in fat pads between the third and fourth mammary glands for each mouse.
Tumor growth curves were generated by measuring tumor diameters and then calculating based on the same equation described above. Finally, the mice were sacrificed on day 23 after the first dose of treatments. Plasma, tumors and major organs (heart, liver, kidney, spleen and lung) were collected for toxicity assessment and metastasis evaluation.

[2] = HE staining of major organs (CDX model); assay type: in vivo, mice; details: xenograft model
From the text: Formalin-fixed and paraffin-embedded 4 μm sections of tumor and organs from cell-bearing xenograft models were stained in hematoxylin and eosin to provide an overall morphology of tissues. Tumor sections were dewaxed with UltraClear™ (J.T.Baker, Phillipsburg, NJ, USA), rehydrated in a descending series of alcohol and water and had antigens unmasked in pH 6 or pH 9 Epitope Retrieval Solution (Leica Biosystems Inc., Wetzlar, Germany) in a microwave pressure cooker. […] VisUCyte HRP Polymer Antibody against rabbit IgG (VC003-025; R&D Systems, Minneapolis, MN, USA) and mouse IgG (VC001-025; R&D Systems, Minneapolis, MN, USA) were targeted to primary antibodies. Liquid DAB+ system from Agilent Technologies (Santa Clara, CA, USA) was applied as a chromogen for visualizing. Slides were mounted after hematoxylin counterstaining. All images were scanned using Motic EasyScan Pro 6 pathology slide scanner (Motic China Group Co., Ltd., Hong Kong, China).

[3] = target: bovine serum albumin (BSA) (Bos taurus, UniProt P02769); experiment: UV-Vis spectrum of BSA-drug complex; assay type: binding; details: 250 μM BSA in PBS pH 7.4, 20-640 μM
Chain of bovine serum albumin (BSA) (P02769 25-607): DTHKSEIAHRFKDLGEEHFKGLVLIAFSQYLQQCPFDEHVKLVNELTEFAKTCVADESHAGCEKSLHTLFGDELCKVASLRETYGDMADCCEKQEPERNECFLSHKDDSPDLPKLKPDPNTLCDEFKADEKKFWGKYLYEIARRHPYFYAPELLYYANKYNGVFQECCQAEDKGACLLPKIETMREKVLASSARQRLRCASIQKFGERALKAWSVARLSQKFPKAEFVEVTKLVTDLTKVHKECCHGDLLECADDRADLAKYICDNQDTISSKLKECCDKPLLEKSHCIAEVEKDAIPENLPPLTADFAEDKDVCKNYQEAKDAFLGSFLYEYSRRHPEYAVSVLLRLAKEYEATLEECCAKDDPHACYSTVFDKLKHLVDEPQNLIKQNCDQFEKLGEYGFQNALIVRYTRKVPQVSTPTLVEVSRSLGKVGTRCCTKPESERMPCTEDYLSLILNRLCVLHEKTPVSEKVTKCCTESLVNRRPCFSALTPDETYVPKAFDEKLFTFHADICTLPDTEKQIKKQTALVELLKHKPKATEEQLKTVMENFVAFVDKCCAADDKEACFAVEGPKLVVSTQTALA
From the text: Absorption between the wavelengths of 220 nm and 500 nm was detected by measuring absorbance every 2 nm via Thermo Varioskan Flash microplate reader (Thermo Fisher Scientific Inc., Waltham, MA, USA). The maximal absorbance of BSA at 278 nm was marked to highlight the spectrum in pure BSA without chemical intercalation.

| SMILES | reduction in cell viability (SK-OV-3; SK-OV-3, 0.625 μM) | reduction in cell viability (SK-OV-3; SK-OV-3, 1.23 μM) | reduction in cell viability (SK-OV-3; SK-OV-3, 2.5 μM) | pIC50 (SK-OV-3) | Bax/Bcl-2 ratio (MDA-MB-231) | LC3 I conversion to LC3 II (autophagy marker) (MDA-MB-231) | cleaved form of PARP (MDA-MB-231) | DNA fragmentation (MDA-MB-231 cells) | average tumor volume and weight compared among groups ([1]; 5 mg/kg i.v. weekly x4, day 23) | pathophysiological changes in heart, kidneys, liver, lungs and spleen (HE staining) [2] | UV absorbance of BSA at 278 nm vs. concentration [3] | average tumor volume vs. control ([1]; 2.11 or 5 mg/kg i.v. weekly x4) |
| --- | --- | --- | --- | --- | --- | --- | --- | --- | --- | --- | --- | --- |
| FC(F)C(F)(F)COCc1ccnc(-c2cc(COCC(F)(F)C(F)F)ccn2)c1.[Cl][Pt][Cl] [TFBPC] | 29% | 54% | 78% | 5.72 | increase in Bax/Bcl-2 ratio | LC3 I conversion to LC3 II | formation of the cleaved form of PARP | DNA fragmentation confirms TFBPC-induced apoptosis | smallest size in volume | No obvious pathophysiological changes | positively correlated | – |
| N.N.[Cl][Pt][Cl] [CDDP, Cis-diamineplatinum(II) dichloride] | – | – | – | 4.39 | – | could not induce apoptotic and autophagy signaling | failed to induce the formation of the cleaved form of PARP | no sign of cisplatin-induced PS expression or DNA fragmentation | – | – | – | no statistical difference |

Source: article PMC9031226, “Preclinical Therapeutic Assessment of a New Chemotherapeutics [Dichloro(4,4’-Bis(2,2,3,3-Tetrafluoropropoxy) Methyl)-2,2’-Bipryridine) Platinum] in an Orthotopic Patient-Derived Xenograft Model of Triple-Negative Breast Cancers” (Pharmaceutics, 2022)
